According to patent US7186735B2, “Acylated arylcycloalkylamines and their use as pharmaceuticals” (Sanofi-Aventis Deutschland GmbH, priority 2002, dated 2007):

molecular target: eNOS promoter; experiment: Activation of eNOS transcription (eNOS promoter-luciferase reporter gene assay); type: cell-based; conditions: human endothelial cell line stably transfected with eNOS promoter-luciferase construct; 18 h incubation; EC50 determined graphically from TIR vs concentration; read-out: eNOS transcription induction ratios EC50
Description: Determination of Activation of eNOS Transcription
Activation of eNOS transcription was determined as described in detail in Li et al., “Activation of protein kinase C alpha and/or epsilon enhances transcription of the human endothelial nitric oxide synthase gene”, Mol. Pharmacol. 53 (1998) 630, the content of which is incorporated herein by reference.
Briefly, a 3.5 kB long fragment 5′ of the starting codon of the eNOS gene was cloned, sequenced and cloned in firefly luciferase expression plasmids to monitor activation of the eNOS promoter by reporter gene activity. A human endothelial cell line stable transfected and expressing this promoter-reporter construct was used for compound testing. Cells were incubated for 18 h with compounds.
All compounds were dissolved in sterile dimethyl sulfoxide (DMSO). A final concentration of 0.5% DMSO in complete medium was allowed. Induction of reporter gene expression in these cells was measured using a standard luciferase assay system (Promega, Cat. No E150) according to the manufacturer's instructions. Luciferase induction in cells incubated with compounds were compared to those incubated with solvent alone. The ratio of both activities (transcription induction ratio, TIR) was plotted as a function of compound concentration. Typically, TIR values started at low concentrations at a ratio of 1, indicating no compound effect, and extended up to a maximum TIR value TIR(max) which indicates the increase of the eNOS transcription. EC50 values of transcription induction ratios as a function of compound concentration were determined graphically.

EC50 [nM] | SMILES
18000 | Cc1nc(C)c(C(=O)N[C@@H]2C[C@H]2c2ccccc2)o1 (racemic) [Example 1]
300 | Cc1nc(C2CC2)sc1C(=O)N[C@@H]1C[C@H]1c1ccccc1 (racemic) [Example 3]
160 | Cc1nc(N)c(C(=O)N[C@@H]2C[C@H]2c2ccccc2)nc1C (racemic) [Example 5]
1800 | Cc1ccc(C(=O)N[C@@H]2C[C@H]2c2ccccc2)cc1NS(C)(=O)=O (racemic) [Example 7]
2000 | CS(=O)(=O)Nc1cccc(C(=O)N[C@@H]2C[C@H]2c2ccccc2)c1 (racemic) [Example 8]
3500 | O=C(N[C@@H]1C[C@H]1c1ccccc1)c1ccc(N2CCOCC2)nc1 (racemic) [Example 9]
5100 | O=C(N[C@@H]1C[C@H]1c1ccccc1)c1cnc2c(c1)CCCC2 (racemic) [Example 10]
780 | COc1ccc(C(=O)N[C@@H]2C[C@H]2c2ccccc2)cn1 (racemic) [Example 11]
10000 | Cc1ncc(C(=O)N[C@@H]2C[C@H]2c2ccccc2)s1 (racemic) [Example 12]
1300 | O=C(N[C@@H]1C[C@H]1c1ccccc1)c1cccc(N2CCCC2)c1 (racemic) [Example 13]
11000 | O=C(N[C@@H]1C[C@H]1c1ccccc1)c1cccc(N2CCCCC2)c1 (racemic) [Example 14]
59000 | CN1CCN(c2cccc(C(=O)N[C@@H]3C[C@H]3c3ccccc3)c2)CC1 (racemic) [Example 15]
32000 | O=C(N[C@@H]1C[C@H]1c1ccccc1)c1cccc(N2CCOCC2)c1 (racemic) [Example 16]
< 10 | Cc1cc(C(=O)N[C@@H]2C[C@H]2c2ccccc2)c(C)n1Cc1cccs1 (racemic) [Example 17]
330 | Cc1nc2ccc(C(=O)N[C@@H]3C[C@H]3c3ccccc3)cc2[nH]1 (racemic) [Example 18]
450 | CC(C)S(=O)(=O)c1csc(C(=O)N[C@@H]2C[C@H]2c2ccccc2)c1Cl (racemic) [Example 19]
110 | Cc1c(C(=O)N[C@@H]2C[C@H]2c2ccccc2)cnn1-c1ccccc1 (racemic) [Example 20]
240 | O=C(N[C@@H]1C[C@H]1c1ccccc1)c1cnn(-c2ccccc2)c1C(F)(F)F (racemic) [Example 21]
24000 | Cc1cc(C(=O)N[C@@H]2C[C@H]2c2ccccc2)c(C)n1Cc1ccncc1 (racemic) [Example 22]

EC50 [nM] | SMILES
600 | Cc1nc(C)c(C(=O)N[C@@H]2C[C@H]2c2ccccc2)s1 (racemic) [Example 23]
950 | Nc1ncccc1C(=O)N[C@@H]1C[C@H]1c1ccccc1 (racemic) [Example 24]
1100 | Cc1ccc(C(=O)N[C@@H]2C[C@H]2c2ccccc2)cn1 (racemic) [Example 25]
290 | Cc1ccc(C(=O)N[C@@H]2C[C@H]2c2ccccc2)c(Cl)n1 (racemic) [Example 26]
4300 | COCc1ccc(C(=O)N[C@@H]2C[C@H]2c2ccccc2)cn1 (racemic) [Example 27]
430 | Nc1nccnc1C(=O)N[C@@H]1C[C@H]1c1ccccc1 (racemic) [Example 28]
100 | O=C(N[C@@H]1C[C@H]1c1ccccc1)c1ccc2cc[nH]c2c1 (racemic) [Example 29]
100 | O=C(N[C@@H]1C[C@H]1c1ccccc1)c1ccc2[nH]ccc2c1 (racemic) [Example 30]
470 | O=C(NC1CC1c1ccccc1)c1cccc2[nH]ccc12 (racemic) [Example 31]
1800 | CN(C)c1cccc(C(=O)NC2CC2c2ccccc2)c1 (racemic) [Example 32]
12000 | Cc1cc(C)c(C(=O)NC2CC2c2ccccc2)c(N)n1 (racemic) [Example 33]
1200 | O=C(NC1CC1c1ccccc1)c1cccc(Cl)c1Cl (racemic) [Example 34]
310 | O=C(NC1CC1c1ccccc1)c1ccc(F)cc1F (racemic) [Example 36]
260 | Cc1ccc(C(=O)NC2CC2c2ccccc2)s1 (racemic) [Example 37]
230 | O=C(NC1CC1c1ccccc1)c1ccc(Cl)s1 (racemic) [Example 38]
190 | O=C(N[C@@H]1C[C@H]1c1ccccc1)c1ccc(F)cc1 (relative stereo) [Example 39, 4-fluoro-N-(trans-2-phenylcyclopropyl)benzamide]
1500 | O=C(N[C@@H]1C[C@H]1c1ccccc1)c1ccc(F)cc1 (relative stereo) [Example 40, 4-Fluoro-N-(trans-2-phenylcyclopropyl)benzamide]
180 | O=C(N[C@@H]1C[C@H]1c1ccccc1)c1ccc(F)cc1 (relative stereo) [Example 41, 4-Fluoro-N-(trans-2-phenylcyclopropyl)benzamide]

SMILES | EC50 [nM]
Cc1ccc(C(=O)N[C@@H]2C[C@H]2c2ccccc2)c(C)n1 (racemic) [Example 4] | 330
